Measured values taken from the NIST ThermoML archive (doi:10.1021/je300280s).
Values joined by “and” are separate entries in the source; they are usually repeats but may differ in a detail not shown here. Identical values can stand only once.

How the values were obtained:
[1] = xn = mol fraction of the nth substance listed; conditions: 101.3 kPa, Liquid, Vibrating tube method
[2] = excess molar enthalpy (molar enthalpy of mixing); xn = mol fraction of the nth substance listed; conditions: 101.3 kPa, Liquid, Flow calorimetry

CCCC(=O)OC [methyl butanoate] + O
Conditions	excess molar enthalpy, [2]	mass density, [1]
288.15 K, x1 = 0.000628	-0.00163 kcal/mol and -0.00164 kcal/mol	999.058 kg/m3
288.15 K, x1 = 0.000941	-0.00247 kcal/mol	999.037 kg/m3
288.15 K, x1 = 0.000943	-0.00244 kcal/mol	999.038 kg/m3
288.15 K, x1 = 0.001255	-0.00319 kcal/mol	999.019 kg/m3
288.15 K, x1 = 0.001257	-0.00321 kcal/mol	999.019 kg/m3
288.15 K, x1 = 0.001569	-0.00403 kcal/mol	998.999 kg/m3
288.15 K, x1 = 0.00157	-0.00397 kcal/mol	999.001 kg/m3
288.15 K, x1 = 0.001882	-0.00473 kcal/mol	998.985 kg/m3
288.15 K, x1 = 0.001884	-0.00482 kcal/mol	998.981 kg/m3
298.15 K, x1 = 0.000628	-0.00122 kcal/mol and -0.00123 kcal/mol	996.968 kg/m3 and 996.965 kg/m3
298.15 K, x1 = 0.000942	-0.00184 kcal/mol and -0.00183 kcal/mol	996.917 kg/m3 and 996.921 kg/m3
298.15 K, x1 = 0.001256	-0.0024 kcal/mol and -0.00241 kcal/mol	996.885 kg/m3 and 996.884 kg/m3
298.15 K, x1 = 0.001569	-0.00296 kcal/mol	996.85 kg/m3
298.15 K, x1 = 0.00157	-0.003 kcal/mol	996.838 kg/m3
298.15 K, x1 = 0.001882	-0.0036 kcal/mol	996.8 kg/m3
298.15 K, x1 = 0.001883	-0.00351 kcal/mol	996.81 kg/m3
298.15 K, x1 = 0.002195	-0.00402 kcal/mol	996.774 kg/m3
298.15 K, x1 = 0.002197	-0.00404 kcal/mol	996.773 kg/m3
308.15 K, x1 = 0.000626	-0.000837 kcal/mol	993.913 kg/m3
308.15 K, x1 = 0.000627	-0.000839 kcal/mol	993.914 kg/m3
308.15 K, x1 = 0.000939	-0.00124 kcal/mol	993.855 kg/m3
308.15 K, x1 = 0.000941	-0.00124 kcal/mol	993.855 kg/m3
308.15 K, x1 = 0.001253	-0.00165 kcal/mol	993.793 kg/m3
308.15 K, x1 = 0.001254	-0.00161 kcal/mol	993.798 kg/m3
308.15 K, x1 = 0.001565	-0.00199 kcal/mol	993.741 kg/m3
308.15 K, x1 = 0.001567	-0.00199 kcal/mol	993.742 kg/m3
308.15 K, x1 = 0.001878	-0.00241 kcal/mol	993.673 kg/m3
308.15 K, x1 = 0.00188	-0.00237 kcal/mol	993.682 kg/m3
308.15 K, x1 = 0.002191	-0.00271 kcal/mol	993.626 kg/m3
308.15 K, x1 = 0.002194	-0.00272 kcal/mol	993.63 kg/m3
318.15 K, x1 = 0.000941	-0.00066 kcal/mol	989.988 kg/m3
318.15 K, x1 = 0.000942	-0.000669 kcal/mol	989.983 kg/m3
318.15 K, x1 = 0.001254	-0.000865 kcal/mol	989.911 kg/m3
318.15 K, x1 = 0.001255	-0.000872 kcal/mol	989.908 kg/m3
318.15 K, x1 = 0.001567	-0.00106 kcal/mol	989.837 kg/m3
318.15 K, x1 = 0.001569	-0.00106 kcal/mol	989.832 kg/m3
318.15 K, x1 = 0.001879	-0.00126 kcal/mol	989.762 kg/m3
318.15 K, x1 = 0.001882	-0.00124 kcal/mol	989.758 kg/m3
318.15 K, x1 = 0.002192	-0.00141 kcal/mol	989.694 kg/m3
318.15 K, x1 = 0.002195	-0.00143 kcal/mol	989.679 kg/m3

CCCOC(C)=O [propyl ethanoate] + O
Conditions	excess molar enthalpy, [2]	mass density, [1]
288.15 K, x1 = 0.000935	-0.00273 kcal/mol	999.019 kg/m3
288.15 K, x1 = 0.001246	-0.00364 kcal/mol	998.986 kg/m3
288.15 K, x1 = 0.001248	-0.00363 kcal/mol	998.988 kg/m3
288.15 K, x1 = 0.001558	-0.00452 kcal/mol	998.959 kg/m3
288.15 K, x1 = 0.00156	-0.00446 kcal/mol	998.962 kg/m3
288.15 K, x1 = 0.001869	-0.00535 kcal/mol	998.934 kg/m3
288.15 K, x1 = 0.001871	-0.00534 kcal/mol	998.936 kg/m3
288.15 K, x1 = 0.00218	-0.0062 kcal/mol	998.909 kg/m3
288.15 K, x1 = 0.002182	-0.00616 kcal/mol	998.906 kg/m3
288.15 K, x1 = 0.002491	-0.00703 kcal/mol	998.876 kg/m3
288.15 K, x1 = 0.002494	-0.00708 kcal/mol	998.882 kg/m3
298.15 K, x1 = 0.000935	-0.00206 kcal/mol	996.903 kg/m3
298.15 K, x1 = 0.000936	-0.0021 kcal/mol	996.9 kg/m3
298.15 K, x1 = 0.000937	-0.00212 kcal/mol	996.898 kg/m3
298.15 K, x1 = 0.001247	-0.00274 kcal/mol	996.856 kg/m3
298.15 K, x1 = 0.001248	-0.00277 kcal/mol	996.852 kg/m3
298.15 K, x1 = 0.001249	-0.00278 kcal/mol	996.848 kg/m3
298.15 K, x1 = 0.001558	-0.00347 kcal/mol	996.807 kg/m3
298.15 K, x1 = 0.00156	-0.00342 kcal/mol and -0.00343 kcal/mol	996.803 kg/m3 and 996.805 kg/m3
298.15 K, x1 = 0.001869	-0.00404 kcal/mol	996.762 kg/m3
298.15 K, x1 = 0.001871	-0.00407 kcal/mol	996.758 kg/m3
298.15 K, x1 = 0.001872	-0.00405 kcal/mol	996.748 kg/m3
298.15 K, x1 = 0.002181	-0.00472 kcal/mol	996.714 kg/m3
298.15 K, x1 = 0.002183	-0.00466 kcal/mol and -0.00472 kcal/mol	996.703 kg/m3 and 996.709 kg/m3
298.15 K, x1 = 0.002492	-0.00539 kcal/mol	996.669 kg/m3
298.15 K, x1 = 0.002494	–	996.669 kg/m3
298.15 K, x1 = 0.002495	–	996.655 kg/m3
308.15 K, x1 = 0.000936	-0.00148 kcal/mol and -0.00147 kcal/mol	993.831 kg/m3 and 993.832 kg/m3
308.15 K, x1 = 0.001247	-0.00196 kcal/mol and -0.00197 kcal/mol	993.761 kg/m3
308.15 K, x1 = 0.001559	-0.00245 kcal/mol and -0.00244 kcal/mol	993.691 kg/m3 and 993.692 kg/m3
308.15 K, x1 = 0.00187	-0.00286 kcal/mol and -0.00292 kcal/mol	993.628 kg/m3 and 993.621 kg/m3
308.15 K, x1 = 0.002181	-0.00332 kcal/mol and -0.00334 kcal/mol	993.559 kg/m3 and 993.557 kg/m3
308.15 K, x1 = 0.002492	-0.0037 kcal/mol and -0.00371 kcal/mol	993.5 kg/m3 and 993.503 kg/m3
318.15 K, x1 = 0.000936	-0.000911 kcal/mol	989.957 kg/m3
318.15 K, x1 = 0.000937	-0.000932 kcal/mol	989.951 kg/m3
318.15 K, x1 = 0.001247	-0.00119 kcal/mol	989.872 kg/m3
318.15 K, x1 = 0.001248	-0.00122 kcal/mol	989.86 kg/m3
318.15 K, x1 = 0.001559	-0.00148 kcal/mol	989.782 kg/m3
318.15 K, x1 = 0.001561	-0.00148 kcal/mol	989.779 kg/m3
318.15 K, x1 = 0.00187	-0.00175 kcal/mol	989.693 kg/m3
318.15 K, x1 = 0.001873	-0.00172 kcal/mol	989.698 kg/m3
318.15 K, x1 = 0.002182	-0.00201 kcal/mol	989.605 kg/m3
318.15 K, x1 = 0.002184	-0.00198 kcal/mol	989.612 kg/m3
318.15 K, x1 = 0.002493	-0.00221 kcal/mol	989.536 kg/m3
318.15 K, x1 = 0.002496	-0.00221 kcal/mol	989.532 kg/m3
